According to patent US9677045B2, “Microorganisms and methods for production of 4-hydroxybutyrate, 1,4-butanediol and related compounds” (priority 2012, dated 2017):

Columns and labels:
homoserine kinase = homoserine kinase (Escherichia coli, UniProt P00547); conditions: cited from earlier work; for % kcat: relative to L-homoserine
[1] = tested on: aminotransferase from Leishmania mexicana; conditions: activity considered 100% on tyrosine; enzyme expressed in E. coli; cited from earlier work
Alcohol dehydrogenase = Alcohol dehydrogenase (ADH) assay in the reductive direction, cell extracts; conditions: extracts of MG1655 lacI^Q with pZA33
Description: (§1) In Vitro Enzyme Assays. To obtain crude extracts for activity assays, cells were harvested by centrifugation at 4,500 rpm (Beckman-Coulter, Allegera X-15R) for 10 min. The pellets were resuspended in 0.3 mL BugBuster (Novagen) reagent with benzonase and lysozyme, and lysis proceeded for 15 minutes at room temperature with gentle shaking. Cell-free lysate was obtained by centrifugation at 14,000 rpm (Eppendorf centrifuge 5402) for 30 min at 4° C. Cell protein in the sample was determined using the method of Bradford et al., Anal. Biochem. 72:248-254 (1976), and specific enzyme assays conducted as described below. Activities are reported in Units/mg protein, where a unit of activity is defined as the amount of enzyme required to convert 1 mmol of substrate in 1 min. at room temperature. In general, reported values are averages of at least 3 replicate assays.
(§2) Alcohol (ADH) and aldehyde (ALD) dehydrogenase was assayed in the reductive direction using a procedure adapted from several literature sources (Durre et al., FEMS Microbiol. Rev. 17:251-262 (1995); Palosaari and Rogers, J. Bacteriol. 170:2971-2976 (1988) and Welch et al., Arch. Biochem. Biophys. 273:309-318 (1989). The oxidation of NADH is followed by reading absorbance at 340 nm every four seconds for a total of 240 seconds at room temperature. The reductive assays were performed in 100 mM MOPS (adjusted to pH 7.5 with KOH), 0.4 mM NADH, and from 1 to 50 μl of cell extract. The reaction is started by adding the following reagents: 100 μl of 100 mM acetaldehyde or butyraldehyde for ADH, or 100 μl of 1 mM acetyl-CoA or butyryl-CoA for ALD. The Spectrophotometer is quickly blanked and then the kinetic read is started. The resulting slope of the reduction in absorbance at 340 nm per minute, along with the molar extinction coefficient of NAD(P)H at 340 nM (6000) and the protein concentration of the extract, can be used to determine the specific activity.
(§3) Gene candidates for the 4-HB to BDO conversion pathway were next tested for activity when expressed in the E. coli host MG1655 lacI^Q. Recombinant strains containing each gene candidate expressed on pZA33 were grown in the presence of 0.25 mM IPTG for four hours at 37° C. to fully induce expression of the enzyme. Four hours after induction, cells were harvested and assayed for ADH and ALD activity as described above.

Aldehyde dehydrogenase = Aldehyde dehydrogenase (ALD) assay in the reductive direction, cell extracts; conditions: extracts of MG1655 lacI^Q with pZA33
Description: as §1, §2, §3

[2] = tested on: 4-HB to BDO conversion pathway; test: Production of BDO from 10 mM 4-HB in recombinant E. coli strains
Description: For the BDO production experiments, cat2 from Porphyromonas gingivalis W83 (gene 0034) was included on pZA33 for the conversion of 4-HB to 4-HB-CoA, while the candidate dehydrogenase genes were expressed on pZE13. The host strain was MG1655 lacI^Q. Along with the alcohol and aldehyde dehydrogenase candidates, we also tested the ability of CoA-dependent succinic semialdehyde dehydrogenases (sucD) to function in this step, due to the similarity of the substrates. Cells were grown to an OD of about 0.5 in LB medium supplemented with 10 mM 4-HB, induced with 1 mM IPTG, and culture broth samples taken after 24 hours and analyzed for BDO as described below.
Finally, the construct was tested for participation in the conversion of 4-HB to BDO. Host strains were transformed with the pZA33-0020-0021 construct described and pZE13-0002, and compared to use of cat2 in BDO production using the aerobic procedure used above in FIG. 5.

Sequence of homoserine kinase (P00547 whole entry): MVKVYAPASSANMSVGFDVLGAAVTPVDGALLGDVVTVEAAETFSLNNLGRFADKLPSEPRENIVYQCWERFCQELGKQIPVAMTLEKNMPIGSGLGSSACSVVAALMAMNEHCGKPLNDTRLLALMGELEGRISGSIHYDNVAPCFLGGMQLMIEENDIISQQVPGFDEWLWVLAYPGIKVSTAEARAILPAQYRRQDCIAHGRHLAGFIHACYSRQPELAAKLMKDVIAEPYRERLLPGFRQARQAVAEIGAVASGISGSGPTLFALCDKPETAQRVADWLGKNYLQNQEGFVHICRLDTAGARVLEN

In the case of `CCCOC(=O)[C@@H](N)CCO` [L-homoserine n-propyl ester], the kcat (homoserine kinase) is listed as 14.0 ± 0.4 and the “% kcat” value (homoserine kinase) is listed as 76%.

For `CC(C)OC(=O)[C@@H](N)CCO` [L-homoserine isopropyl ester], the kcat (homoserine kinase) is listed as 13.6 ± 1.4 and the “% kcat” value (homoserine kinase) is listed as 74%.

In the case of `N[C@@H](CCCO)C(=O)O` [L-2-amino-5-hydroxyvalerate], the kcat (homoserine kinase) is listed as 2.5 ± 0.4 and the “% kcat” value (homoserine kinase) is listed as 9.9%.

In the case of `N[C@@H](CC=O)C(=O)O` [L-aspartate β-semialdehyde], the kcat (homoserine kinase) is given as 2.1 ± 0.1 and the “% kcat” value (homoserine kinase) is given as 8.2%.

For `N[C@H](CO)CCO` [L-2-amino-1,4-butanediol], the kcat (homoserine kinase) is given as 2.0 ± 0.5 and the “% kcat” value (homoserine kinase) is given as 7.9%.

In the case of `N[C@@H](Cc1ccccc1)C(=O)O` [phenylalanine], the “activity relative to tyrosine” value [1] is listed as 90%.

For `CSCC[C@H](N)C(=O)O` [methionine], the “activity relative to tyrosine” value [1] is given as 25%.

For “0011: Gene ID 0011: adhE, E. coli, Aldehyde/alcohol dehydrogenase [Sample 0011]”, the Alcohol dehydrogenase activity (Alcohol dehydrogenase; Substrate Acetaldehyde) was 0.0093 μmol min^−1 mg cell protein^−1, the Alcohol dehydrogenase activity (Alcohol dehydrogenase; Substrate Butyraldehyde) was 0.0265 μmol min^−1 mg cell protein^−1 and the Aldehyde dehydrogenase activity (Aldehyde dehydrogenase; Substrate Acetyl-CoA) was 0.0095 μmol min^−1 mg cell protein^−1. For the same molecule, the Aldehyde dehydrogenase activity (Aldehyde dehydrogenase; Substrate Butyryl-CoA) was 0.0069 μmol min^−1 mg cell protein^−1.

In the case of `CCOC(=O)[C@@H](N)CCO` [L-homoserine ethyl ester], the kcat (homoserine kinase) is given as 13.6 ± 0.8 and the “% kcat” value (homoserine kinase) is given as 74%.

In the case of `CC(C)COC(=O)[C@@H](N)CCO` [L-homoserine isobutyl ester], the kcat (homoserine kinase) is listed as 16.4 ± 0.8 and the “% kcat” value (homoserine kinase) is listed as 84%.

In the case of `N[C@H](CCO)C(=O)O` [D-homoserine], the kcat (homoserine kinase) is listed as 8.3 ± 1.1 and the “% kcat” value (homoserine kinase) is listed as 32%.

For `N[C@@H](CCO)C(=O)O` [L-homoserine], the kcat (homoserine kinase) is given as 18.3 ± 0.1 and the “% kcat” value (homoserine kinase) is given as 100%.

In the case of `N[C@@H](Cc1c[nH]c2ccccc12)C(=O)O` [tryptophan], the “activity relative to tyrosine” value [1] is given as 85%.

For `CC(C)C[C@H](N)C(=O)O` [leucine], the “activity relative to tyrosine” value [1] is given as 25%.

For `N[C@@H](Cc1ccc(O)cc1)C(=O)O` [tyrosine], the “activity relative to tyrosine” value [1] is listed as 100%.

For `CCCCOC(=O)[C@@H](N)CCO` [L-homserine n-butyl ester], the kcat (homoserine kinase) is given as 29.1 ± 1.2 and the “% kcat” value (homoserine kinase) is given as 160%.

In the case of `COC(=O)[C@@H](N)CCO` [L-homoserine methyl ester], the kcat (homoserine kinase) is listed as 14.7 ± 2.6 and the “% kcat” value (homoserine kinase) is listed as 80%.

B1: 0013: Gene ID 0013: bdhB, Clostridium acetobutylicum ATCC 824, Butanol dehydrogenase II (protein, UniProt Q04945 1-390, looked up)
NADH-dependent butanol …: MVDFEYSIPTRIFFGKDKINVLGRELKKYGSKVLIVYGGGSIKRNGIYDKAVSILEKNSIKFYELAGVEPNPRVTTVEKGVKICRENGVEVVLAIGGGSAIDCAKVIAAACEYDGNPWDIVLDGSKIKRVLPIASILTIAATGSEMDTWAVINNMDTNEKLIAAHPDMAPKFSILDPTYTYTVPTNQTAAGTADIMSHIFEVYFSNTKTAYLQDRMAEALLRTCIKYGGIALEKPDDYEARANLMWASSLAINGLLTYGKDTNWSVHLMEHELSAYYDITHGVGLAILTPNWMEYILNNDTVYKFVEYGVNVWGIDKEKNHYDIAHQAIQKTRDYFVNVLGLPSRLRDVGIEEEKLDIMAKESVKLTGGTIGNLRPVNASEVLQIFKKSV
In the case of B1, the Alcohol dehydrogenase activity (Alcohol dehydrogenase; Substrate Acetaldehyde) is reported as 0.0142 μmol min^−1 mg cell protein^−1 and the Alcohol dehydrogenase activity (Alcohol dehydrogenase; Substrate Butyraldehyde) is reported as 0.0130 μmol min^−1 mg cell protein^−1.

B2: 0026: Gene ID 0026: bdhA, Clostridium acetobutylicum ATCC 824, Butanol dehydrogenase (protein, UniProt Q04944 1-389, looked up)
NADH-dependent butanol …: MLSFDYSIPTKVFFGKGKIDVIGEEIKKYGSRVLIVYGGGSIKRNGIYDRATAILKENNIAFYELSGVEPNPRITTVKKGIEICRENNVDLVLAIGGGSAIDCSKVIAAGVYYDGDTWDMVKDPSKITKVLPIASILTLSATGSEMDQIAVISNMETNEKLGVGHDDMRPKFSVLDPTYTFTVPKNQTAAGTADIMSHTFESYFSGVEGAYVQDGIAEAILRTCIKYGKIAMEKTDDYEARANLMWASSLAINGLLSLGKDRKWSCHPMEHELSAYYDITHGVGLAILTPNWMEYILNDDTLHKFVSYGINVWGIDKNKDNYEIAREAIKNTREYFNSLGIPSKLREVGIGKDKLELMAKQAVRNSGGTIGSLRPINAEDVLEIFKKSY
For B2, the Alcohol dehydrogenase activity (Alcohol dehydrogenase; Substrate Acetaldehyde) was 0.0008 μmol min^−1 mg cell protein^−1, the Alcohol dehydrogenase activity (Alcohol dehydrogenase; Substrate Butyraldehyde) was 0.0024 μmol min^−1 mg cell protein^−1 and the Aldehyde dehydrogenase activity (Aldehyde dehydrogenase; Substrate Acetyl-CoA) was 0.0005 μmol min^−1 mg cell protein^−1. For the same molecule, the Aldehyde dehydrogenase activity (Aldehyde dehydrogenase; Substrate Butyryl-CoA) was 0 μmol min^−1 mg cell protein^−1.

B3: 0002: Gene ID 0002: adhE, Clostridium acetobutylicum ATCC 824, Aldehyde/alcohol dehydrogenase (protein, UniProt P33744 1-862, looked up)
Aldehyde-alcohol dehydrogenase: MKVTTVKELDEKLKVIKEAQKKFSCYSQEMVDEIFRNAAMAAIDARIELAKAAVLETGMGLVEDKVIKNHFAGEYIYNKYKDEKTCGIIERNEPYGITKIAEPIGVVAAIIPVTNPTSTTIFKSLISLKTRNGIFFSPHPRAKKSTILAAKTILDAAVKSGAPENIIGWIDEPSIELTQYLMQKADITLATGGPSLVKSAYSSGKPAIGVGPGNTPVIIDESAHIKMAVSSIILSKTYDNGVICASEQSVIVLKSIYNKVKDEFQERGAYIIKKNELDKVREVIFKDGSVNPKIVGQSAYTIAAMAGIKVPKTTRILIGEVTSLGEEEPFAHEKLSPVLAMYEADNFDDALKKAVTLINLGGLGHTSGIYADEIKARDKIDRFSSAMKTVRTFVNIPTSQGASGDLYNFRIPPSFTLGCGFWGGNSVSENVGPKHLLNIKTVAERRENMLWFRVPHKVYFKFGCLQFALKDLKDLKKKRAFIVTDSDPYNLNYVDSIIKILEHLDIDFKVFNKVGREADLKTIKKATEEMSSFMPDTIIALGGTPEMSSAKLMWVLYEHPEVKFEDLAIKFMDIRKRIYTFPKLGKKAMLVAITTSAGSGSEVTPFALVTDNNTGNKYMLADYEMTPNMAIVDAELMMKMPKGLTAYSGIDALVNSIEAYTSVYASEYTNGLALEAIRLIFKYLPEAYKNGRTNEKAREKMAHASTMAGMASANAFLGLCHSMAIKLSSEHNIPSGIANALLIEEVIKFNAVDNPVKQAPCPQYKYPNTIFRYARIADYIKLGGNTDEEKVDLLINKIHELKKALNIPTSIKDAGVLEENFYSSLDRISELALDDQCTGANPRFPLTSEIKEMYINCFKKQP
With B3 the BDO/OD ([2]; Aerobic) was 15.2, the BDO ([2]; Aerobic, 10 mM 4-HB, 24 hours, cat2 (0034) on pZA33) was 138.3 µM and the BDO/OD ([2]; Anaerobic) was 40.5. For the same molecule, the BDO ([2]; Anaerobic, 10 mM 4-HB, 24 hours, cat2 (0034) on pZA33) was 54.7 µM, the BDO/OD ([2]; Microaerobic) was 8.73 and the BDO ([2]; Microaerobic, 10 mM 4-HB, 24 hours, cat2 (0034) on pZA33) was 48.2 µM. The Alcohol dehydrogenase activity (Alcohol dehydrogenase; Substrate Acetaldehyde) was 0.0247 μmol min^−1 mg cell protein^−1, the Alcohol dehydrogenase activity (Alcohol dehydrogenase; Substrate Butyraldehyde) was 0.0264 μmol min^−1 mg cell protein^−1 and the Aldehyde dehydrogenase activity (Aldehyde dehydrogenase; Substrate Acetyl-CoA) was 0.0046 μmol min^−1 mg cell protein^−1. For the same molecule, the Aldehyde dehydrogenase activity (Aldehyde dehydrogenase; Substrate Butyryl-CoA) was 0.0076 μmol min^−1 mg cell protein^−1.

B4: 0034: Gene ID 0034: cat2, Porphyromonas gingivalis W83, 4-hydroxybutyrate coenzyme A transferase (protein, listed as Porphyromonas gingivalis)
chain: MKDVLAEYASRIVSAEEAVKHIKNGERVALSHAAGVPQSCVDALVQQADLFQNVEIYHMLCLGEGKYMAPEMAPHFRHITNFVGGNSRKAVEENRADFIPVFFYEVPSMIRKDILHIDVAIVQLSMPDENGYCSFGVSCDYSKPAAESAHLVIGEINRQMPYVHGDNLIHISKLDYIVMADYPIYSLAKPKIGEVEEAIGRNCAELIEDGATLQLGIGAIPDAALLFLKDKKDLGIHTEMFSDGVVELVRSGVITGKKKTLHPGKMVATFLMGSEDVYHFIDKNPDVELYPVDYVNDPRVIAQNDNMVSINSCIEIDLMGQVVSECIGSKQFSGTGGQVDYVRGAAWSKNGKSIMAIPSTAKNGTASRIVPIIAEGAAVTTLRNEVDYVVTEYGIAQLKGKSLRQRAEALIAIAHPDFREELTKHLRKRFG
For B4, the BDO/OD ([2]; Host MG1655 lacI^Q) was 0.042, the BDO ([2]; Host MG1655 lacI^Q, adhE2 in pZE13, aerobic procedure) was 0.827 µM and the BDO/OD ([2]; Host MG1655 ΔadhE lacI^Q) was 0.166. The BDO ([2]; Host MG1655 ΔadhE lacI^Q, adhE2 in pZE13, aerobic procedure) was 2.084 µM.
